Measurements: PubChem BioAssay AID2060904 (Molecular Pharmacology Branch, DTP, NCI, 2025)

Tested on: 349418-098-R-PDC complex spheroid viability
Test: Anticancer human tumor 349418-098-R-PDC patient-derived lung adenocarcinoma cell line growth inhibition [RAS]
Conditions: for viability, T/C: stronger effect = lower value
Excerpt: RAS pathway inhibitors in Combinations in Complex Spheroids
A high-throughput screen of multi-cell type tumor spheroids was designed to identify active combinations of RAS pathway inhibitors and targeted small molecules. Complex spheroids include a stromal component modeled by human endothelial cells (HUVEC) and fibroblasts modeled by human mesenchymal stem cells (MSCs). The concentration ranges selected for each drug and investigational agent were based upon clinically achievable concentrations if the clinical Cmax of the agent was known.
Compounds. The drugs and investigational agents: abemaciclib (NSC768073), cobimetinib (NSC768068), divarasib (GDC6063, NSC841802), docetaxel (NSC628503), GDC-1971 (RLY-1971, NSC841576), gemcitabine (NSC613327), inavolisib (NSC800729), ipatasertib (NSC767898), KB-0742 (NSC834161), MRTX-1133 (NSC836407), osimertinib (NSC779217), RMC-4630 (NSC839698), RMC-6236 (NSC851965), RMC-6291 (NSC852671), Ro-3306 (NSC812927), sapanisertib (NSC764658), SN-38 (NSC673596), staurosporine (NSC755774), SY5609 (NSC837396), and tovorafenib (DAY101, NSC766906), were obtained from the National Cancer Institute (NCI) Developmental Therapeutics Program Chemical Repository. The FDA-approved anticancer drug set is available from the NCI Developmental Therapeutics Program. […] The stock solutions were prepared in dimethyl sulfoxide (DMSO, Sigma-Aldrich, St. Louis, MO, cat. D2650) at 800-fold the tested concentration and stored at -70 degrees C prior to their use. All drugs and investigational agents were tested over a range starting from a high concentration at or near the clinical Cmax and decreasing in half-log increments. If the clinical Cmax for an agent had not been determined, the highest concentration tested was 10 microM.
Cell Culture. All cells were maintained in an incubator at 37 degrees C and 5% CO2 with 95% humidity. The PDC lines were cultured according to standard operating procedures established by the NCI PDMR. All PDCs were thawed and cultured in Matrigel-coated flasks prepared with a working solution of 1X Ham's F-12 nutrient mix, without supplementation (Invitrogen, Waltham, MA, cat. 11765054), 100 U/mL penicillin-streptomycin (Invitrogen, cat. 15140122), and 2.5% Matrigel (Corning Inc., Corning, NY, cat. 354248) for the first three passages. The 362531-283-R-J2-PDC and 782815-120-R-J1-PDC lines were cultured in 6C/Colon 1B media, which includes advanced DMEM/F-12 (Thermo Fisher Scientific, cat. 12634028), 10 mM HEPES (Thermo Fisher Scientific, cat. 15630080), 1X GlutaMAX supplement (Thermo Fisher Scientific, cat. 35050061), 0.1 mg/mL primocin (InvivoGen, San Diego, CA, cat. ant-pm-2), 10% defined fetal bovine serum, heat inactivated (HyClone Laboratories Inc., Logan, UT, cat. SH30070.03HI), 50% L-WRN conditioned media (ATCC, cat. CRL-3276), 1.25 mM N-Acetyl-L-cysteine (Sigma-Aldrich, cat. A9165), 10 mM nicotinamide (Sigma-Aldrich, cat. N0636), 1X B-27 supplement (Thermo Fisher Scientific, cat. 17504044), 1X N-2 supplement (Thermo Fisher Scientific, cat. 17502048), 50 ng/mL human EGF (Thermo Fisher Scientific, cat. PHG0311), and 10 microM Y-27632 dihydrochloride (Tocris Bioscience, cat. 1254). The K12877-001-R-J1-PDC line was cultured in 6I media, which includes all 6C/Colon 1B media plus 10 ng/mL human FGF-10 (PeproTech, cat. 100-26), 1 ng/mL human FGF-2 (PeproTech, cat. 100-18B), 1 µM prostaglandin E2 (Tocris Bioscience, cat. 2296), […] hydrocortisone (Sigma-Aldrich, cat. H4001), and […] bovine insulin (Sigma-Aldrich, cat. I6634). The K86415-001-R-J1-PDC line was cultured in 6D media, which includes all 6C/Colon 1B media components minus the L-WRN conditioned media. The 485176-168-R4-J1-PDC was cultured in PANC media, which includes all 6C/Colon 1B media plus 100 ng/mL human FGF-10 (PeproTech, cat. 100-26), 500 nM SB-431542 (Selleckchem, cat. S1067), and 10 nM gastrin (Tocris Bioscience, cat. 3006). […]

[1] = curve of first compound, second compound 0.0316 µM
[2] = curve of first compound, second compound 0.1 µM
[3] = curve of first compound, second compound 0.316 µM
[4] = curve of first compound, second compound 1 µM
[5] = curve of first compound, second compound 3.16 µM
[6] = curve of first compound, second compound 10 µM
[7] = second compound 0.0316 µM, first compound 0.0316 µM
[8] = second compound 0.0316 µM, first compound 0.1 µM
[9] = second compound 0.0316 µM, first compound 0.316 µM
[10] = second compound 0.0316 µM, first compound 1 µM
[11] = second compound 0.0316 µM, first compound 3.16 µM
[12] = second compound 0.0316 µM, first compound 10 µM
[13] = second compound 0.1 µM, first compound 0.0316 µM
[14] = second compound 0.1 µM, first compound 0.1 µM
[15] = second compound 0.1 µM, first compound 0.316 µM
[16] = second compound 0.1 µM, first compound 1 µM
[17] = second compound 0.1 µM, first compound 3.16 µM
[18] = second compound 0.1 µM, first compound 10 µM
[19] = second compound 0.316 µM, first compound 0.0316 µM
[20] = second compound 0.316 µM, first compound 0.1 µM
[21] = second compound 0.316 µM, first compound 0.316 µM
[22] = second compound 0.316 µM, first compound 1 µM
[23] = second compound 0.316 µM, first compound 3.16 µM
[24] = second compound 0.316 µM, first compound 10 µM
[25] = second compound 1 µM, first compound 0.0316 µM
[26] = second compound 1 µM, first compound 0.1 µM
[27] = second compound 1 µM, first compound 0.316 µM
[28] = second compound 1 µM, first compound 1 µM
[29] = second compound 1 µM, first compound 3.16 µM
[30] = second compound 1 µM, first compound 10 µM
[31] = second compound 3.16 µM, first compound 0.0316 µM
[32] = second compound 3.16 µM, first compound 0.1 µM
[33] = second compound 3.16 µM, first compound 0.316 µM
[34] = second compound 3.16 µM, first compound 1 µM
[35] = second compound 3.16 µM, first compound 3.16 µM
[36] = second compound 3.16 µM, first compound 10 µM
[37] = second compound 10 µM, first compound 0.0316 µM
[38] = second compound 10 µM, first compound 0.1 µM
[39] = second compound 10 µM, first compound 0.316 µM
[40] = second compound 10 µM, first compound 1 µM
[41] = second compound 10 µM, first compound 3.16 µM
[42] = second compound 10 µM, first compound 10 µM
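Further: spheroids exposed to compound for seven days before viability readout.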

Structure (SMILES): NC1c2ccccc2OC12CCN(c1cnc3c(N4CCCc5ncccc54)n[nH]c3n1)CC2 (stereo not drawn) + C#Cc1c(F)ccc2cc(O)cc(-c3ncc4c(N5CC6CCC(C5)N6)nc(OCC56CCCN5CC(F)C6)nc4c3F)c12
- IC50 [1]: > 10 µM
- IC50 [2]: 9.34 µM
- IC50 [3]: > 10 µM
- IC50 [4]: > 10 µM
- IC50 [5]: > 10 µM
- IC50 [6]: > 10 µM
- viability, T/C [7]: 113%
- viability, T/C [8]: 108%
- viability, T/C [9]: 96.7%
- viability, T/C [10]: 79.7%
- viability, T/C [11]: 90.1%
- viability, T/C [12]: 63%
- viability, T/C [13]: 86.7%
- viability, T/C [14]: 86.2%
- viability, T/C [15]: 94.7%
- viability, T/C [16]: 79.1%
- viability, T/C [17]: 94.3%
- viability, T/C [18]: 47.6%
- viability, T/C [19]: 94.2%
- viability, T/C [20]: 120%
- viability, T/C [21]: 105%
- viability, T/C [22]: 76.2%
- viability, T/C [23]: 83.5%
- viability, T/C [24]: 58.4%
- viability, T/C [25]: 95.9%
- viability, T/C [26]: 92.4%
- viability, T/C [27]: 87.5%
- viability, T/C [28]: 99.6%
- viability, T/C [29]: 104%
- viability, T/C [30]: 54.2%
- viability, T/C [31]: 71%
- viability, T/C [32]: 90.4%
- viability, T/C [33]: 90.1%
- viability, T/C [34]: 84.3%
- viability, T/C [35]: 84.9%
- viability, T/C [36]: 77%
- viability, T/C [37]: 85.3%
- viability, T/C [38]: 22.6%
- viability, T/C [39]: 67.2%
- viability, T/C [40]: 82.7%
- viability, T/C [41]: 65.3%
- viability, T/C [42]: 67.2%

Structure (SMILES): CC(=O)OC12COC1CC(O)C1(C)C(=O)C(O)C3=C(C)C(OC(=O)C(O)C(NC(=O)OC(C)(C)C)c4ccccc4)CC(O)(C(OC(=O)c4ccccc4)C21)C3(C)C (stereo not drawn) + C#Cc1c(F)ccc2cc(O)cc(-c3ncc4c(N5CC6CCC(C5)N6)nc(OCC56CCCN5CC(F)C6)nc4c3F)c12
- IC50 [1]: < 0.0316 µM
- IC50 [2]: < 0.0316 µM
- IC50 [3]: < 0.0316 µM
- IC50 [4]: < 0.0316 µM
- IC50 [5]: < 0.0316 µM
- IC50 [6]: < 0.0316 µM
- viability, T/C [7]: 16.5%
- viability, T/C [8]: 15.4%
- viability, T/C [9]: 21.2%
- viability, T/C [10]: 19.1%
- viability, T/C [11]: 19.9%
- viability, T/C [12]: 22.4%
- viability, T/C [13]: 16.3%
- viability, T/C [14]: 23.3%
- viability, T/C [15]: 19.9%
- viability, T/C [16]: 18.4%
- viability, T/C [17]: 24.4%
- viability, T/C [18]: 27%
- viability, T/C [19]: 16.1%
- viability, T/C [20]: 19.1%
- viability, T/C [21]: 26%
- viability, T/C [22]: 21.1%
- viability, T/C [23]: 23.3%
- viability, T/C [24]: 24.5%
- viability, T/C [25]: 16.8%
- viability, T/C [26]: 16.6%
- viability, T/C [27]: 21.4%
- viability, T/C [28]: 18.2%
- viability, T/C [29]: 19.1%
- viability, T/C [30]: 24.4%
- viability, T/C [31]: 13.2%
- viability, T/C [32]: 17.9%
- viability, T/C [33]: 17.5%
- viability, T/C [34]: 24.6%
- viability, T/C [35]: 31.2%
- viability, T/C [36]: 23.4%
- viability, T/C [37]: 7.77%
- viability, T/C [38]: 5.42%
- viability, T/C [39]: 9.77%
- viability, T/C [40]: 6.32%
- viability, T/C [41]: 7.62%
- viability, T/C [42]: 5.03%

Structure (SMILES): NC1c2ccccc2OC12CCN(c1cnc3c(N4CCCc5ncccc54)n[nH]c3n1)CC2 (stereo not drawn)
- viability, T/C (compound 0.0316 µM): 102% [middle of 4 runs]
- viability, T/C (compound 3.16 µM): 98.5% [middle of 4 runs]
- viability, T/C (compound 10 µM): 68.6% [middle of 4 runs]
- IC50 (curve of compound): > 10 µM
